Source: US4853467A, “Nitrogen containing derivatives of epipodophyllotoxin glucosides” (Bristol-Myers Company, priority 1987, dated 1989)
Values after ≈ are worked out from the molar mass of the structure shown.

Experiments:
[1] = test system: small cell lung cancer, non-lymphocytic leukemia, and non-seminomatous testicular cancer; settings: AMA Drug Evaluation, 5th Edition, 1983; cited from earlier work
HCT/VM34 = assay: In vitro cytotoxicity assay, HCT/VM34 teniposide-resistant human colon tumor; assay type: cell-based; settings: HCT/VM34, resistant to teniposide, two values per compound, four-fold serial dilution; for IC50: Homo sapiens
Experimental: (§1) The in vitro cytotoxicity assay involved growing various mammalian tumor cells, including human tumor cells, on microtitre plates employing established tissue culture methods. The concentration of each compound required to inhibit cell growth by 50% (IC50) was then determined by a four-fold serial dilution technique. The validity of the method has been supported by a report published in the "Proceedings of the American Association for Cancer Research", 1984, 25:1891 (Abst. No. 328). Tumor cells of the following types were employed for each compound tested: B16-F10 murine melanoma; Moser human colon; SW900 human lung and three human colon tumor cell lines namely HCT-116, HCT-VM, and HCT-VP, the latter two being resistant to teniposide (VM) and etoposide (VP), respectively. IC50 values less than 500 μg/ml are a positive indicator of antitumor activity. Table II presents IC50 values of various compounds of the present invention against the aforementioned cell lines.

SW900 human lung = assay: In vitro cytotoxicity assay, SW900 human lung; assay type: cell-based; settings: two values per compound, four-fold serial dilution; for IC50: Homo sapiens, SW900, SW900 human lung; for In vitro cytotoxicity IC50, SW900: SW900 human lung
Experimental: as §1

HCT-116 = assay: In vitro cytotoxicity assay, HCT-116 human colon tumor; assay type: cell-based; settings: two values per compound, four-fold serial dilution; for In vitro cytotoxicity IC50, HCT-116: HCT-116 human colon; for IC50: Homo sapiens, HCT-116, HCT-116 human colon
Experimental: as §1

P388 murine leukemia = assay: P388 Leukemia, antitumor activity against murine P388 leukemia; assay type: in vivo, murine (female CDF1 mice); settings: i.p. on days 5 and 8; 10^6 P388 cells i.p.; maximum effect over doses; >=125 considered significant; etoposide values in parentheses are positive control in same experiment
Experimental: Female CDF1 mice were implanted intraperitoneally with a tumor inoculum of 10^6 ascites cells of P388 murine leukemia and treated with various doses of a test compound; four mice were used for each dose level and ten were used as saline-treated control. The compounds were administered by intraperitoneal injection on days 5 and 8 (day 1 being the day of tumor implantation). Antitumor activity was expressed as % T/C which is the ratio of the median survival time (MST) of drug-treated group to the MST of saline-treated control group. A compound showing a % T/C value of 125 or greater is generally considered to have significant antitumor activity in the P388 test. The experiment lasted 31 days at the end of which time the number of survivors was noted. Table I presents the results of the above-described evaluation; only the maximum % T/C and the dose showing the maximum effect are reported.

Moser human colon = assay: In vitro cytotoxicity assay, Moser human colon; assay type: cell-based; settings: two values per compound, four-fold serial dilution; for IC50: Homo sapiens
Experimental: as §1

B16-F10 murine melanoma = assay: In vitro cytotoxicity assay, B16-F10 murine melanoma; assay type: cell-based; settings: two values per compound, four-fold serial dilution; for In vitro cytotoxicity IC50, B-16-F10: B16-F10 murine melanoma; for IC50: Mus musculus, B16-F10, B16-F10 murine melanoma, read-out: In vitro cytotoxicity IC50, B-16-F10
Experimental: as §1

HCT/VP35 = assay: In vitro cytotoxicity assay, HCT/VP35 etoposide-resistant human colon tumor; assay type: cell-based; settings: two values per compound, four-fold serial dilution; for In vitro cytotoxicity IC50, HCT/VP35: HCT/VP35, resistant to etoposide; for IC50: Homo sapiens, HCT/VP35, HCT/VP35, resistant to etoposide
Experimental: as §1

SMILES | activity in the treatment of cancers [1] | In vitro cytotoxicity IC50, HCT/VM34 (HCT/VM34) | IC50 (HCT/VM34) | IC50 (SW900 human lung) | In vitro cytotoxicity IC50, SW900 (SW900 human lung) | In vitro cytotoxicity IC50, HCT-116 (HCT-116) | IC50 (HCT-116) | Max % T/C (ratio of median survival time of drug-treated group to saline-treated control group) (P388 murine leukemia) | IC50 (Moser human colon) | In vitro cytotoxicity IC50, MOSER (Moser human colon) | In vitro cytotoxicity IC50, B-16-F10 (B16-F10 murine melanoma) | IC50 (B16-F10 murine melanoma) | In vitro cytotoxicity IC50, HCT/VP35 (HCT/VP35) | IC50 (HCT/VP35)
COc1cc([C@@H]2c3cc4c(cc3[C@@H](O[C@@H]3O[C@@H]5CO[C@@H](C)O[C@H]5[C@H](O)[C@H]3O)[C@H]3COC(=O)[C@H]23)OCO4)cc(OC)c1O [etoposide] | active in the treatment of a variety of cancers including small cell lung cancer, non-lymphocytic leukemia, and non-seminomatous testicular cancer |  |  |  |  |  |  |  |  |  |  |  |  | 
COc1cc([C@@H]2c3cc4c(cc3[C@@H](O[C@@H]3O[C@@H]5CO[C@@H](C)O[C@H]5[C@H](O)[C@H]3O)[C@H]3COC(=O)[C@H]23)OCO4)cc(N=Cc2ccncc2)c1O [Example 19, 3'-Desmethoxy-3'-[(4-pyridyl)methylene]amino etoposide] |  | 19.3 µg/mL | 21 µg/mL (≈ 31.7 µM) | 42 µg/mL (≈ 63.4 µM) | 28 µg/mL | 12.7 µg/mL | 13.9 µg/mL (≈ 21 µM) | 230% | 38 µg/mL (≈ 57.3 µM) | 32 µg/mL | 16.4 µg/mL | 16.9 µg/mL (≈ 25.5 µM) |  | 
CNc1cc([C@@H]2c3cc4c(cc3[C@@H](O[C@@H]3O[C@@H]5CO[C@@H](C)O[C@H]5[C@H](O)[C@H]3O)[C@H]3COC(=O)[C@H]23)OCO4)cc(OC)c1O [Example 4, 3'-Desmethoxy-3'-methylamine etoposide] |  | 33 µg/mL | 23 µg/mL (≈ 39.1 µM) | 63 µg/mL (≈ 107 µM) |  | 15.7 µg/mL | 16.2 µg/mL (≈ 27.6 µM) | 170% | 56 µg/mL (≈ 95.3 µM) | 49 µg/mL | 17.9 µg/mL | 13.9 µg/mL (≈ 23.7 µM) | 47 µg/mL | 40 µg/mL (≈ 68.1 µM)
COc1cc([C@@H]2c3cc4c(cc3[C@@H](O[C@@H]3O[C@@H]5CO[C@@H](C)O[C@H]5[C@H](O)[C@H]3O)[C@H]3COC(=O)[C@H]23)OCO4)cc(N=Cc2cccc([N+](=O)[O-])c2)c1O [Example 22, 3'-Desmethoxy-3'-[[(3-nitro)phenyl]methylene]amino etoposide] |  | 16.2 µg/mL | 21 µg/mL (≈ 29.7 µM) | > 250 µg/mL |  | 13.3 µg/mL | 17 µg/mL (≈ 24.1 µM) | 235% | > 250 µg/mL |  | 14.1 µg/mL | 10.9 µg/mL (≈ 15.4 µM) | 43 µg/mL | 36 µg/mL (≈ 50.9 µM)
C[C@@H]1OC[C@H]2O[C@@H](O[C@@H]3c4cc5c(cc4[C@@H](C4=CC(=O)C(=O)C(NC(=O)NCCCl)=C4)[C@H]4C(=O)OC[C@@H]43)OCO5)[C@H](O)[C@@H](O)[C@@H]2O1 [Example 29, 5'-Desmethoxy-5'-[[(2-chloroethyl)amino]carbonyl]amino etoposide 3',4'-ortho-quinone] |  | 53 µg/mL | 55 µg/mL (≈ 83 µM) | > 188 µg/mL |  | 46 µg/mL | 53 µg/mL (≈ 79.9 µM) | 135% | 71 µg/mL (≈ 107 µM) | 77 µg/mL | 38 µg/mL | 39 µg/mL (≈ 58.8 µM) | 79 µg/mL | 77 µg/mL (≈ 116 µM)
COc1cc([C@@H]2c3cc4c(cc3[C@@H](O[C@@H]3O[C@@H]5CO[C@@H](C)O[C@H]5[C@H](O)[C@H]3O)[C@H]3COC(=O)[C@H]23)OCO4)cc([N+](=O)[O-])c1O [Example 24, 3'-Desmethoxy-3'-nitro etoposide] |  | 82 µg/mL | 56 µg/mL (≈ 92.8 µM) | 66 µg/mL (≈ 109 µM) | 90 µg/mL | 53 µg/mL | 43 µg/mL (≈ 71.2 µM) | > 140% | 92 µg/mL (≈ 152 µM) | 84 µg/mL | 50 µg/mL | 41 µg/mL (≈ 67.9 µM) |  | 
COc1cc([C@@H]2c3cc4c(cc3[C@@H](O[C@@H]3O[C@@H]5CO[C@@H](C)O[C@H]5[C@H](O)[C@H]3O)[C@H]3COC(=O)[C@H]23)OCO4)cc(N=Cc2ccsc2)c1O [Example 17, 3'-Desmethyoxy-3'-[(3-thienyl)methylene]amino etoposide] |  | 24 µg/mL | 23 µg/mL (≈ 34.4 µM) | 22 µg/mL (≈ 32.9 µM) | 44 µg/mL | 10.1 µg/mL | 12.3 µg/mL (≈ 18.4 µM) | 195% | 45 µg/mL (≈ 67.4 µM) |  | 8.4 µg/mL | 6.7 µg/mL (≈ 10 µM) | 44 µg/mL | 31 µg/mL (≈ 46.4 µM)
COc1cc([C@@H]2c3cc4c(cc3[C@@H](O[C@@H]3O[C@@H]5CO[C@@H](C)O[C@H]5[C@H](O)[C@H]3O)[C@H]3COC(=O)[C@H]23)OCO4)cc(NCN2C(=O)CCC2=O)c1O [Example 13, 3'-Desmethoxy-3'-[(N-succinimido)methyl]amino etoposide] |  | 3.9 µg/mL | 2.7 µg/mL (≈ 3.94 µM) | 11 µg/mL (≈ 16.1 µM) | 8.6 µg/mL | 4.1 µg/mL | 3.6 µg/mL (≈ 5.26 µM) | 230% | 12.3 µg/mL (≈ 18 µM) | 12.1 µg/mL | 8.7 µg/mL | 5.5 µg/mL (≈ 8.03 µM) | 3.3 µg/mL | 3.4 µg/mL (≈ 4.97 µM)
COc1cc([C@@H]2c3cc4c(cc3[C@@H](O[C@@H]3O[C@@H]5CO[C@@H](c6cccs6)O[C@H]5[C@H](O)[C@H]3O)[C@H]3COC(=O)[C@H]23)OCO4)cc(OC)c1O [teniposide] | active in the treatment of a variety of cancers including small cell lung cancer, non-lymphocytic leukemia, and non-seminomatous testicular cancer |  |  |  |  |  |  |  |  |  |  |  |  | 
COc1cc([C@@H]2c3cc4c(cc3[C@@H](O[C@@H]3O[C@@H]5CO[C@@H](C)O[C@H]5[C@H](O)[C@H]3O)[C@H]3COC(=O)[C@H]23)OCO4)cc(NC(=O)NCc2ccccc2)c1O [Example 11, 3'-Desmethoxy-3'-([[phenylmethyl)amino]carbonyl]amino etoposide] |  | 26 µg/mL | 24 µg/mL (≈ 34 µM) | 74 µg/mL (≈ 105 µM) | 84 µg/mL | 98 µg/mL | 58 µg/mL (≈ 82.1 µM) | 110% | 89 µg/mL (≈ 126 µM) | 93 µg/mL | 40 µg/mL | 44 µg/mL (≈ 62.3 µM) | 31 µg/mL | 30 µg/mL (≈ 42.5 µM)
